Test results taken from US20220339259A1, “ORALLY DELIVERED THERAPEUTICAL COMPOSITION AND USE THEREOF” (priority 2019, published 2022).
Where two headings read alike, the source gives them in different places. Each block holds one compound with its values, some of them ahead of it.

What was measured:
[1] = in human; co-formulated with SNAC; cited from earlier work
[2] = Intraperitoneal glucose tolerance test, GLP-1-Lys^26-LCFA in acid-neutralized mice; assay type: in vivo, male C57BL/6 mice
Experimental: FIG. 12. Additional examples of representative glucose tolerance assay results. Glucose tolerance assays were performed after treatment with free GLP-1 analogue or GLP-1-Lys^26-LCFA. Each mouse was treated orally with 100 μL 1M NaHCO3 to neutralize acid in the gastric fluid as described before. After 1 minute, the mice were treated p.o. with PBS, 100 μg free GLP-1 analogue (GLP-1), or 100 μg GLP-1-Lys^26-LCFA. The mice were then challenged with intraperitoneal injection of 2 g/kg glucose 1 hour after treatment.
Intraperitoneal GTT was performed in male C57BL/6 mice. Briefly, 6 to 12-week-old male C57BL/6 mice were fasted overnight and treated with 100 μL 1M NaHCO3 to neutralize acid in the gastric fluid. One minute later, the mice were treated with PBS, 100 μg GLP-1 analogue, or 100 μg GLP-1-Lys^26-LCFA by oral gavage, respectively. All mice were then treated with 2 g/kg glucose by intraperitoneal injection 1 hour later. Blood samples were collected to measure blood glucose levels. Area under the curve (AUC) of blood glucose was calculated to evaluate hypoglycemic response to each treatment (FIG. 12).

[3] = Intraperitoneal glucose tolerance test, Ex4-Lys^27-LCFA in acid-neutralized mice; assay type: in vivo, male C57BL/6 mice
Experimental: FIG. 11. […] Each mouse was treated orally with 100 μL 1M NaHCO3 to neutralize acid in the gastric fluid. […] The mice were then challenged with intraperitoneal injection of 2 g/kg glucose 1 hour after treatment.
Intraperitoneal glucose tolerance test (GTT) was performed in male C57BL/6 mice. Briefly, 6 to 12-week-old male C57BL/6 mice were fasted overnight and treated by oral gavage with 100 μL 1M NaHCO3 to neutralize acid in the gastric fluid. One minute later, the mice were treated with PBS, 100 μg Ex4, or 100 μg Ex4-Lys^27-LCFA by oral gavage, respectively. All mice were then treated with 2 g/kg glucose by intraperitoneal injection 1 hour later. Blood samples were collected to measure blood glucose levels. Area under the curve (AUC) of blood glucose was calculated to evaluate hypoglycemic response to each treatment (FIG. 11).

Caco-2 cells = assay: Uptake of fatty acid-Ex4 conjugate by Caco-2 cells; assay type: cell-based, human; conditions: Alexa594-labeled conjugates; incubation for one hour
Experimental: FIG. 10. Examples of representative results of Caco-2 cell uptake. The fatty acid-conjugated Ex4 molecules were incubated with Alexa594 (fluorescent dye)-labeled Ex4-Lys^27-LCFA having 12, 16 and 18 carbon fatty acids (C12, C16, C18, respectively) and Ex4-Lys^27-SCFA (short chain fatty acid having 8 carbons, shown as C8) and were taken up by the cells. Levels of uptake were determined based on fluorescent intensity (MFI) inside the cells.
Coco-2 cells were seeded in cell culture plates. Cells were incubated with either fluorescently labeled Ex4-Lys^27-SCFA (C8) or one of the fluorescently labeled Ex4-Lys^27-LCFA having a C12, C16 and C18 LCFA. After incubation for one hour, cells were washed with PBS to remove fatty acid-conjugated Ex4. A plate reader was applied to measure fluorescent intensity in each well in the cell culture plate, and the results were compared (FIG. 10).

[4] = cited from earlier work
c-Myc = assay: Knockdown of c-Myc expression in Caco-2 cells (Western blot); assay type: cell-based, human; conditions: 200 nM, without transfection reagent, 3 days
Experimental: FIG. 18. Examples of representative measurement data of protein expression. Western blot was performed to measure the suppression of c-Myc expression by LCFA-conjugated miR-34a mimic 3 days after Caco-2 cells were treated. c-Myc is a known target of miR-34a. Its expression level was detected both after a short exposure (short expo) and a relatively long exposure (long expo).
Caco-2 cells were seeded in 6-well cell culture plates, and treated (without any transfection reagent) with 200 nM free scramble siRNA (Scr), 200 nM free miR-34a mimic (miR-34a), or 200 nM LCFA-conjugated miR-34a (FA-miR-34a), respectively. Cells were harvested 3 days later, and lysed to prepare protein samples. Equal amount of protein samples was loaded in 10% SDS-polyacrylamide gels for Western blot analysis. The c-Myc protein was detected with an anti-c-Myc antibody. c-Myc expression levels were detected after both a short-time exposure (short expo) and relatively long-time exposure (long expo). β-Actin was served as an expression control (FIG. 18).

[5] = Plasma ibrutinib level by HPLC after oral gavage; set-up: species or system mice; conditions: mouse, in vivo
Experimental: FIG. 16A-FIG. 16B. Examples of representative HPLC data. Plasma ibrutinib levels were measured by HPLC 3 hours after mice were treated by oral gavage with an equal amount of free ibrutinib and LCFA-ibrutinib. The ibrutinib peaks are indicated with arrows. There was a 3-fold increase in plasma ibrutinib level in mice treated with LCFA-ibrutinib (B) compared with those treated with free ibrutinib (A) based on the measurements of the area under the curve (AUC).
LCFA-conjugated ibrutinib was synthesized and characterized (FIG. 15A-FIG. 15C). To compare drug uptake between free ibrutinib and LCFA-ibrutinib, mice were treated with an equal amount of free ibrutinib or LCFA-ibrutinib. Blood samples were collected at different time points, and analyzed for ibrutinib content by HPLC. Area under the curve (AUC) of ibrutinib was calculated to evaluate plasma drug concentration (FIG. 16A-FIG. 16B).

[6] = 100 μg p.o. after 100 μL 1M NaHCO3, 2 g/kg glucose i.p. 1 hour after treatment, 15 minutes after challenge
[7] = 100 μg p.o. after NaHCO3, 2 g/kg glucose i.p. 1 hour later

Compound: semaglutide
- oral bioavailability [1]: barely detectable

Compound: free GLP-1: GLP-1 analogue with AIB at position 8 (SEQ ID. 2), unconjugated
- blood glucose level after glucose challenge [2, 6]: high blood glucose levels
- controlling blood glucose level after gavage in the acid-neutralized GI track [2, 7]: not

Compound: Ex4-Lys^27-LCFA: conjugated long-chain fatty acid and exendin-4 through lysine residue 27; C12, C16 and C18 dicarboxylic acids used
- blood glucose level after glucose challenge [3, 6]: mild increase in blood glucose level
- controlling blood glucose level after gavage in the acid-neutralized GI track [3, 7]: effective in controlling blood glucose level
- levels of uptake by Caco-2 cells (fluorescent intensity, MFI) (Caco-2 cells): high uptake

Compound: C=CC(=O)N1CCC[C@@H](n2nc(-c3ccc(Oc4ccccc4)cc3)c3c(N)ncnc32)C1 [ibrutinib]
- oral bioavailability ([4]; fasting state): 3.9%
- oral bioavailability ([4]; fed state): 8.4%

Compound: miR-34a: free microRNA-34a mimic duplex (SEQ ID. 3 and 4), unconjugated control (chain 1 UGGCAGUGUCUUAGCUGGUUGUTT; chain 2 ACAACCAGCUAAGACACUGCCATT; sense strand nucleotides 20 and 21 methylated, type of methylation not given here)
- suppression of c-Myc expression (c-Myc): not

- Area under the curve (AUC) of ibrutinib in plasma (HPLC) [5]: 6.428
- increase in plasma ibrutinib level compared with free ibrutinib (based on AUC) ([5]; 3 h): 3 fold
Compound: C=CC(=O)N1CCCC(n2nc(-c3ccc(Oc4ccccc4)cc3)c3c(NC(=O)CCCCCCCCCCCCCCCCC(=O)O)ncnc32)C1 (centres unmarked) [LCFA-ibrutinib]
